Results on 23 compounds are retold here after US20230159532A1, “PARATHYROID HORMONE (PTH) RECEPTOR ANTAGONISTS AND USES THEREOF” (Crinetics Pharmaceuticals, Inc., priority 2021, published 2023).

Some results are limits rather than exact numbers.

This test has as its target T1, human PTHR1 receptor (Homo sapiens, UniProt Q03431).
T1 construct: purchased Eurofins HTS030M
T1 sequence (Q03431 27-593): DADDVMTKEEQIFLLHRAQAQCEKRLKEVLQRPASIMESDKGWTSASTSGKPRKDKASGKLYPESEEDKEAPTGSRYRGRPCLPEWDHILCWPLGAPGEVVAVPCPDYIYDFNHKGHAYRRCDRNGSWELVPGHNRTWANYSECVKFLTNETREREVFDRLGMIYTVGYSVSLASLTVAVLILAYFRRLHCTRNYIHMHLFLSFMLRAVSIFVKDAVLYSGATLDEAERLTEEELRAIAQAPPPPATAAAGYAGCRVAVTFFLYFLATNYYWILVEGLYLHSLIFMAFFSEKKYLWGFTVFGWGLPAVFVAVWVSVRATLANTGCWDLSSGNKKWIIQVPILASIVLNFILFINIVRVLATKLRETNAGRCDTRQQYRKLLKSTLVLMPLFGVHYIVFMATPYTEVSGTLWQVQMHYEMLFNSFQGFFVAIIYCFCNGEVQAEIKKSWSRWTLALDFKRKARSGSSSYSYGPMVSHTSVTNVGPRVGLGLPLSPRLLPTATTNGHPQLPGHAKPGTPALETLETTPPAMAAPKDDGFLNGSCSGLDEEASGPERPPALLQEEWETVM
The experiment in a line: Competitive antagonist binding assay for hPTH-R1 (radioactive competition binding, SPA beads). The following applies: human PTHR1 membranes, [125I]-[Nle8,18,Tyr34]-PTH(1-34) 0.2 nM, 90 minutes at room temperature; read-out: hPTHR1 Ki. In outline: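 Human PTHR1 membranes on SPA beads incubated 90 min at room temperature with compound (typically 0-10,000 nM final) and 0.2 nM [125I]-[Nle8,18,Tyr34]-PTH(1-34) in HEPES buffer with MgCl2, CaCl2, BSA, Triton X-100 and protease inhibitors, pH 7.4. Scintillation signal read; Ki values derived.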

One may read the Ki as a measure of affinity in units of concentration, obtained from inhibition or displacement. With `CCN1C(=O)N(c2c(F)cc(NCCNCCO)cc2F)c2cc(Cl)cc(Cl)c2-c2cc(F)cnc21` [1-37, 13,15-dichloro-10-[2,6-difluoro-4-({2-[(2-hydroxyethyl)amino]ethyl}amino)phenyl]-8-ethyl-4-fluoro-6,8,10-triazatricyclo[9.4.0.0^2,7]pentadeca-1(11),2(7),3,5,12,14-hexaen-9-one], the Ki is below 0.1 µM.
With `CCN1C(=O)N(c2c(F)cc(NCCNC)cc2F)c2cc(Cl)cc(C)c2-c2cccnc21` [1-23, 13-chloro-10-(2,6-difluoro-4-{[2-(methylamino)ethyl]amino}phenyl)-8-ethyl-15-methyl-6,8,10-triazatricyclo[9.4.0.0^2,7]pentadeca-1(11),2(7),3,5,12,14-hexaen-9-one], the Ki is below 0.1 µM.
For `CCN1C(=O)N(c2c(F)cc(NCCNCCC(=O)O)cc2F)c2cc(Cl)ccc2-c2cc(Cl)cnc21` [1-72, 3-({2-[(4-{4,13-dichloro-8-ethyl-9-oxo-6,8,10-triazatricyclo[9.4.0.0^2,7]pentadeca-1(11),2(7),3,5,12,14-hexaen-10-yl}-3,5-difluorophenyl)amino]ethyl}amino)propanoic acid], the Ki is below 0.1 µM.
As for `CNCCNc1cc(F)c(N2C(=O)N(C)c3ncc(Cl)cc3-c3c(F)cc(C#N)cc32)c(F)c1` [1-115, 4-chloro-10-(2,6-difluoro-4-{[2-(methylamino)ethyl]amino}phenyl)-15-fluoro-8-methyl-9-oxo-6,8,10-triazatricyclo[9.4.0.0^2,7]pentadeca-1(11),2(7),3,5,12,14-hexaene-13-carbonitrile], the Ki is below 0.1 µM.
As to “4-chloro-10-(2,6-difluoro-4-{[2-(methylamino)ethyl]amino}phenyl)-8-methyl-9-oxo-6,8,10-triazatricyclo[9.4.0.0^2,7]pentadeca-1(11),2(7),3,5,12,14-hexaene-13-carbonitrile [1-211]”, the Ki is below 0.1 µM.
Consider `CCN1C(=O)N(c2c(F)cc(NCCNC)cc2F)c2cc(C#N)cc(C)c2-c2cc(F)cnc21` [1-62, 10-(2,6-difluoro-4-{[2-(methylamino)ethyl]amino}phenyl)-8-ethyl-4-fluoro-15-methyl-9-oxo-6,8,10-triazatricyclo[9.4.0.0^2,7]pentadeca-1(11),2(7),3,5,12,14-hexaene-13-carbonitrile], for which the Ki is below 0.1 µM.
As to `CCN1C(=O)N(c2c(F)cc(NCCNCCCC(=O)O)cc2F)c2cc(Cl)cc(F)c2-c2cc(F)cnc21` [1-96, 4-({2-[(4-{13-chloro-8-ethyl-4,15-difluoro-9-oxo-6,8,10-triazatricyclo[9.4.0.0^2,7]pentadeca-1(11),2(7),3,5,12,14-hexaen-10-yl}-3,5-difluorophenyl)amino]ethyl}amino)butanoic acid], the Ki was below 0.1 µM.
For `CCN1C(=O)N(c2c(F)cc(NCCN[C@H]3C[C@@H](O)C3)cc2F)c2cc(C#N)ccc2-c2cc(F)cnc21` [1-232, 10-{2,6-difluoro-4-[(2-{[(1s,3s)-3-hydroxycyclobutyl]amino}ethyl)amino]phenyl}-8-ethyl-4-fluoro-9-oxo-6,8,10-triazatricyclo[9.4.0.0^2,7]pentadeca-1(11),2(7),3,5,12,14-hexaene-13-carbonitrile], the Ki is below 0.1 µM.
As for `CCN1C(=O)N(c2c(F)cc(NCCNC3CCOC3)cc2F)c2cc(Cl)ccc2-c2cccnc21` (centres unmarked) [1-5, 13-chloro-10-[2,6-difluoro-4-({2-[(oxolan-3-yl)amino]ethyl}amino)phenyl]-8-ethyl-6,8,10-triazatricyclo[9.4.0.0^2,7]pentadeca-1(11),2(7),3,5,12,14-hexaen-9-one], the Ki was below 0.1 µM.
Take `CCN1C(=O)N(c2c(F)cc(NCCN)cc2F)c2cc(Cl)ccc2-c2cccnc21` [1-3, 10-{4-[(2-aminoethyl)amino]-2,6-difluorophenyl}-13-chloro-8-ethyl-6,8,10-triazatricyclo[9.4.0.0^2,7]pentadeca-1(11),2(7),3,5,12,14-hexaen-9-one]: the Ki was below 0.1 µM.
On to `Cc1cc(Cl)cc2c1-c1cc(F)cnc1N(C(C)C)C(=O)N2c1c(F)cc(NCCNCCO)cc1F` [1-79, 13-chloro-10-[2,6-difluoro-4-({2-[(2-hydroxyethyl)amino]ethyl}amino)phenyl]-4-fluoro-15-methyl-8-(propan-2-yl)-6,8,10-triazatricyclo[9.4.0.0^2,7]pentadeca-1(11),2(7),3,5,12,14-hexaen-9-one], for which the Ki was below 0.1 µM.
As for `CCN1C(=O)N(c2c(F)cc(NCCNCC#N)cc2F)c2cc(C#N)ccc2-c2cc(Cl)cnc21` [1-160, 4-chloro-10-[4-({2-[(cyanomethyl)amino]ethyl}amino)-2,6-difluorophenyl]-8-ethyl-9-oxo-6,8,10-triazatricyclo[9.4.0.0^2,7]pentadeca-1(11),2(7),3,5,12,14-hexaene-13-carbonitrile], the Ki was 0.1 to 1 µM.
In the case of `CCN1C(=O)N(c2c(F)cc(NCCNCC(C)(C)O)cc2F)c2cc(C#N)ccc2-c2cc(Cl)cnc21` [1-138, 4-chloro-10-[2,6-difluoro-4-({2-[(2-hydroxy-2-methylpropyl)amino]ethyl}amino)phenyl]-8-ethyl-9-oxo-6,8,10-triazatricyclo[9.4.0.0^2,7]pentadeca-1(11),2(7),3,5,12,14-hexaene-13-carbonitrile], the Ki is below 0.1 µM.
For `CCCN1C(=O)N(c2c(F)cc(NCCNCCO)cc2F)c2cc(C#N)ccc2-c2cc(Cl)cnc21` [1-120, 4-chloro-10-[2,6-difluoro-4-({2-[(2-hydroxyethyl)amino]ethyl}amino)phenyl]-9-oxo-8-propyl-6,8,10-triazatricyclo[9.4.0.0^2,7]pentadeca-1(11),2(7),3,5,12,14-hexaene-13-carbonitrile], the Ki is below 0.1 µM.
For `CCN1C(=O)N(c2c(F)cc(NCCNCCO)cc2F)c2ccccc2-c2cc(Cl)cnc21` [1-142, 4-chloro-10-[2,6-difluoro-4-({2-[(2-hydroxyethyl)amino]ethyl}amino)phenyl]-8-ethyl-6,8,10-triazatricyclo[9.4.0.0^2,7]pentadeca-1(11),2(7),3,5,12,14-hexaen-9-one], the Ki is below 0.1 µM.
In the case of `CCN1C(=O)N(c2c(F)cc(NCCNC)cc2F)c2cc(Cl)c(C)cc2-c2cccnc21` [3-3, 13-chloro-10-(2,6-difluoro-4-{[2-(methylamino)ethyl]amino}phenyl)-8-ethyl-14-methyl-6,8,10-triazatricyclo[9.4.0.0^2,7]pentadeca-1(11),2(7),3,5,12,14-hexaen-9-one], the Ki was below 0.1 µM.
With `CCN1C(=O)N(c2c(F)cc(NCCNC)cc2F)c2cc(Cl)ccc2-c2cc(C)cnc21` [1-18, 13-chloro-10-(2,6-difluoro-4-{[2-(methylamino)ethyl]amino}phenyl)-8-ethyl-4-methyl-6,8,10-triazatricyclo[9.4.0.0^2,7]pentadeca-1(11),2(7),3,5,12,14-hexaen-9-one], the inhibitory constant (Ki) is below 0.1 µM.
For `CN1C(=O)N(c2c(F)cc(NCCNCCCO)cc2F)c2cc(C#N)ccc2-c2cc(Cl)cnc21` [1-197, 4-chloro-10-[2,6-difluoro-4-({2-[(3-hydroxypropyl)amino]ethyl}amino)phenyl]-8-methyl-9-oxo-6,8,10-triazatricyclo[9.4.0.0^2,7]pentadeca-1(11),2(7),3,5,12,14-hexaene-13-carbonitrile], the Ki is below 0.1 µM.
Consider `CCN1C(=O)N(c2c(F)cc(NCCNCCC#N)cc2F)c2cc(C#N)ccc2-c2cc(Cl)cnc21` [1-154, 4-chloro-10-[4-({2-[(2-cyanoethyl)amino]ethyl}amino)-2,6-difluorophenyl]-8-ethyl-9-oxo-6,8,10-triazatricyclo[9.4.0.0^2,7]pentadeca-1(11),2(7),3,5,12,14-hexaene-13-carbonitrile], for which the Ki was below 0.1 µM.
For `CCN1C(=O)N(c2c(F)cc(NCCNCCNC(=O)OC)cc2F)c2cc(C#N)ccc2-c2cc(Cl)cnc21` [1-167, Methyl N-[2-({2-[(4-{4-chloro-13-cyano-8-ethyl-9-oxo-6,8,10-triazatricyclo[9.4.0.0^2,7]pentadeca-1(11),2(7),3,5,12,14-hexaen-10-yl}-3,5-difluorophenyl)amino]ethyl}amino)ethyl]carbamate], the Ki was below 0.1 µM.
The same measure for `CCN1C(=O)N(c2c(F)cc(NCC(=O)O)cc2F)c2cc(Cl)ccc2-c2cc(Cl)cnc21` [1-41, 2-[(4-{4,13-dichloro-8-ethyl-9-oxo-6,8,10-triazatricyclo[9.4.0.0^2,7]pentadeca-1(11),2(7),3,5,12,14-hexaen-10-yl}-3,5-difluorophenyl)amino]acetic acid]: above 10 µM.
As to `CCN1C(=O)N(c2c(F)cc(NCCNC)cc2F)c2cc(Cl)ccc2-c2cccnc21` [1-2, 13-chloro-10-(2,6-difluoro-4-{[2-(methylamino)ethyl]amino}phenyl)-8-ethyl-6,8,10-triazatricyclo[9.4.0.0^2,7]pentadeca-1(11),2(7),3,5,12,14-hexaen-9-one], the Ki is below 0.1 µM.
`CCN1C(=O)N(c2c(F)cc(NCCNCCO)cc2F)c2cc(Cl)cc(F)c2-c2cc(Cl)cnc21` [1-60, 4,13-dichloro-10-[2,6-difluoro-4-({2-[(2-hydroxyethyl)amino]ethyl}amino)phenyl]-8-ethyl-15-fluoro-6,8,10-triazatricyclo[9.4.0.0^2,7]pentadeca-1(11),2(7),3,5,12,14-hexaen-9-one]: the inhibitory constant (Ki) was below 0.1 µM.
